# Data from ChEMBL document CHEMBL2073874, “The multidrug resistance transporter ABCG2 (breast cancer resistance protein 1) effluxes Hoechst 33342 and is overexpressed in hematopoietic stem cells” (Clin Cancer Res, 2002).
# Target: T1, Broad substrate specificity ATP-binding cassette transporter ABCG2 (Homo sapiens, UniProt Q9UNQ0)
# T1 sequence (Q9UNQ0 whole entry): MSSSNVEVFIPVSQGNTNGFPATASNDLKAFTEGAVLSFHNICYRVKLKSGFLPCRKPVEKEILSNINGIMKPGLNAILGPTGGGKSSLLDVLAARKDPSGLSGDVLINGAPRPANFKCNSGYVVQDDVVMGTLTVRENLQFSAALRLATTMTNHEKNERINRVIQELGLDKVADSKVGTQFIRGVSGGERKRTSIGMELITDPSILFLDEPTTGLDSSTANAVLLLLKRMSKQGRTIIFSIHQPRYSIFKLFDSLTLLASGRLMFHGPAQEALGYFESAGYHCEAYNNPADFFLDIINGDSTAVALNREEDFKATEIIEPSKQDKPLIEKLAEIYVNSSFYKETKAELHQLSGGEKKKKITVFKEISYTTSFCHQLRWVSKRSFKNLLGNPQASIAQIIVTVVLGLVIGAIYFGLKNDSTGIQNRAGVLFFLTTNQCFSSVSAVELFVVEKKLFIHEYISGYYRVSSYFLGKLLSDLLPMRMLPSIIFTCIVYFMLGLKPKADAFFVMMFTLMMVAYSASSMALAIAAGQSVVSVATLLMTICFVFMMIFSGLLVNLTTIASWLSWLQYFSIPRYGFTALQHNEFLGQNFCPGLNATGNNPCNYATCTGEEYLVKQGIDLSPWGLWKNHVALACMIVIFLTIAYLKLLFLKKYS
# Experiment: TP_TRANSPORTER: efflux in BCRP-expressing MCF-7 cells
# Assay type: functional, cell-based
# Settings: mcf7
smiles,measurement,value
CCOc1ccc(-c2nc3cc(-c4nc5cc(N6CCN(C)CC6)ccc5[nH]4)ccc3[nH]2)cc1,Activity,substrate [+]
